From patent US6627211B1, “Transnasal anticonvulsive compositions and modulated process” (SK Corporation, priority 1999, dated 2003)

How the values were obtained:
in vitro = settings: for Mean Transnasal Flux: diazepam, 37° C., n = 2
Description: The nasal mucous membrane used in these in vitro experiments was obtained from New Zealand White rabbits (2.5-3.0 kg). Rabbits were sacrificed by IV injection of phenobarbital. The nasal septum was carefully removed from a bone block using surgical scissors and a bone-cutting saw. Two pieces of nasal mucous membranes were then carefully stripped from the nasal septum without touching the center of the membrane surface and rinsed with normal saline solution. The mucosal membrane was mounted between two half-cells of a glass diffusion cell apparatus. The exposed area of the nasal membrane was approximately 0.64 cm^2. A test solution or suspension (3.5 ml) was introduced into the mucosal side of the membrane in the donor compartment while 3.5 ml of 10% ethanol, 40% propylene glycol, and 50% pH 7.4 isotonic phosphate buffer solution was added to the receptor compartment. The entire diffusion system was maintained at 37° C. throughout the experiment. At predetermined time intervals, 100 μl of the receptor solution was withdrawn for the assay and refilled with the same volume of fresh receptor medium to keep the volume constant. The steady-state flux value was determined from the slope of the straight line attained from the plot of the cumulative amount of drug permeated as a function of time. Each experiment was carried out in at least duplicate.
A high pressure liquid chromatographic system equipped with a multi-solvent delivery system (Model 600E, Waters Associates, Milford, Mass.), an auto-injector (Model 717 Plus, Waters Ass.), a photodiode array detector (Model 996, Waters Ass.), a reverse phase Symmetric C18 column (150 mm ×3.9 mm ID, 5 μm), and a Millenium 2010 software computer system was used in this study.
In these studies, a series of bile salts such as sodium cholate, sodium deoxycholate, sodium taurocholate, and sodium glycocholate, and a lecithin such as lysophosphatidylcholine were examined. The permeation rates were measured using the method described under the in vitro membrane permeation test method.
The permeation rates were determined utilizing the method described in Example 1.
The in vitro membrane permeation rates were measured using the test method described in Example 1.
Sample drug solutions (10 mg/ml) were prepared with the vehicle with and without the bile salt. The membrane permeation rates were measured in the use of the test method described in Example 1.
The in vitro permeation experiments were performed using the test method described in Example 1.

[1] = Bioavailability and pharmacokinetics of (S)-2-carbamoyloxyl-1-o-chlorophenylethanol preparations after IV and IN administration; type: in vivo; settings: rabbits
Description: A formulation for IV injection was prepared by dissolving 15 mg (S)-2-carbamoyloxyl-1-o-chlorophenylethanol in 1 mL of 40% PEG 400 and 60% water and filtering through a sterile membrane filter under aseptic conditions. The formulations were administered to rabbits (n=2-4) at the two dosing levels of 2.5 mg/kg and 5 mg/kg in a manner analogous to that described in Example 7. A repeated dosing regimen at 5 minute intervals was also studied in the nasal application of the preparation of the invention. […] To the plasma sample, 50 μl of an internal standard solution (2-(2,6-dichlorophenyl)-2-carbamoyloxyethyl)oxocarboxamide-10 μg/ml) and 5 ml of methyl-butyl ether were added. The mixture was vortexed for 60 seconds and centrifuged at 3500 rpm for 10 minutes. […] The residue was reconstituted with 200 μl of deionized water. The (S)-2-carbamoyloxyl-1-o-chlorophenylethanol concentration in the plasma was determined by HPLC in the use of a mobile phase consisting of 20% acetonitrile and 80% water with a flow rate of 1 ml/minute and UV detection at 210 nm. The detection limit for (S)-2-carbamoyloxyl-1-o-chlorophenylethanol was 23 nmol/l. The pharmacokinetic parameters determined after IV and IN administration of (S)-2-carbamoyloxyl-1-o-chlorophenylethanol at two dose strengths are presented in Table VIII. […]

[2] = dogs, after the nasal administration; cited from earlier work
[3] = Bioavailability and pharmacokinetics of clonazepam preparations after IV and IN administration; settings: rabbits
[4] = vehicle 30% ethanol, 60% propylene glycol, 10% water, initial drug concentration 5mg/ml

NC(=O)OC[C@@H](O)c1ccccc1Cl [(S)-2-carbamoyloxyl-1-o-chlorophenylethanol]
Papp at 5 mg/ml (in vitro; New Zealand White, rabbit): 27.1 ×10⁻⁶ cm/s | Transnasal Flux (in vitro; New Zealand White, rabbit, 5 mg/ml): 487.6 μg/cm^2/hr | time at which plasma concentration after the second dosing exceeded the plasma level of a single IV injection ([1]; IN 5 mg/kg × 2 vs IV 5 mg/kg): 30 min | Cmax and AUC0-240 minutes after the second intranasal application ([1]; second IN application 5 minutes after the first dosing, 5 mg/kg × 2): doubled

Cc1nnc2n1-c1ccc(Cl)cc1C(c1ccccc1Cl)=NC2 [triazolam]
time to maximum plasma concentration [2]: 18 min

O=C1CN=C(c2ccccc2Cl)c2cc([N+](=O)[O-])ccc2N1 [Clonazepam, clonazepam]
Papp at 5 mg/ml (in vitro; New Zealand White, rabbit): 19.3 ×10⁻⁶ cm/s | Transnasal Flux (in vitro; [4]): 347.7 μg/cm^2/hr | time to initial peak plasma concentration ([3]; after the first intranasal application): ≤ 2 min | peak plasma level relative to the IV injection ([3]; first intranasal application 0.2 mg/kg): about 32% | peak plasma concentration after the third application compared with the single IV injection ([3]; third IN application at 5 minutes intervals, peak observed at 15 minutes): nearly identical

CN1C(=O)CN=C(c2ccccc2)c2cc(Cl)ccc21 [Diazepam, diazepam]
increase in the steady-state flux when 1% sodium glycocholate is incorporated into the vehicle (in vitro; 10 mg/ml diazepam in 30% ethanol, 60% propylene glycol, 10% water with vs without 1% SGC (FIG. 3)): approximately 50% | Mean Transnasal Flux (in vitro; vehicle 1% Lysophosphotidylcholine/H2O): 125.5 μg/cm^2/hr | Mean Transnasal Flux (in vitro; vehicle 1% Sodium Cholate/H2O): 66.3 μg/cm^2/hr | Mean Transnasal Flux (in vitro; vehicle 1% Sodium Deoxycholate/H2O): 74.9 μg/cm^2/hr | Mean Transnasal Flux (in vitro; vehicle 1% Sodium Glycocholate/H2O): 96.4 μg/cm^2/hr | Mean Transnasal Flux (in vitro; vehicle 1% Sodium Taurocholate/H2O): 87.0 μg/cm^2/hr | Mean Transnasal Flux (in vitro; vehicle Water): 79.5 μg/cm^2/hr | Transnasal Flux (in vitro; [4]): 246.0 μg/cm^2/hr
